Reference: US20230312584A1, “SALT OF NUCLEOSIDE ANALOG, AND CRYSTAL FORM, PHARMACEUTICAL COMPOSITION AND USE THEREOF” (priority 2020, published 2023)
Converted amounts (≈) assume the structure as drawn. Where a name gives a salt, the structure may show the parent alone. Read-outs that look alike come from different tables or passages of the source.

What was measured:
physchem = assay type: physicochemical; details: for Solubility in water: 30 min
Experimental: About 10 mg of the test product is taken and put in a 1.5 mL sample tube, to which 1 mL of deionized water is added, and then the sample tube is placed in a constant temperature mixer and shaken at 37° C. for 30 minutes; after shaking, the sample tube is placed in a centrifuge to undergo centrifugation for 2 minutes. Then, 500 μL of the supernatant is taken and diluted with acetonitrile to an appropriate concentration, which is used as a test sample solution for HPLC analysis.
An appropriate amount of sample was weighed and put in a glass test tube, to which a selected solvent was gradually added. The clarification process was observed.

SARS-CoV-2 = details: according to experimental tests; compounds of CN 202010313870.X; cited from earlier work
[1] = tested on: a variety of other RNA viruses; details: according to experimental tests; compounds of CN 202010313870.X; cited from earlier work
Hygroscopicity test = assay type: physicochemical; details: 25° C., RH80%, 24 hours
Experimental: An appropriate amount of a test product is taken and spread in a glass-stoppered weighing bottle that has been placed in an artificial climate box (temperature is 25° C.±1° C., relative humidity is 80%±2%) for 24 hours. The weighing bottle is opened, put together with the stopper in the artificial climate box (the temperature is 25° C.±1° C., the relative humidity is 80%±2%) for 24 hours, and then taken out. The moisture content of the test product before and after being placed in the artificial climate box is measured, and the hygroscopicity is measured by comparing the change in moisture content.

[2] = assay type: physicochemical
Experimental: The test product is placed in suitable clean containers, and then placed under conditions of high temperature (80° C.), high humidity (25° C., relative humidity 92.5%), and light (light intensity 4500±500 1× and 90 μw/cm^2), respectively, for 7 days, and samples are taken on the 7th day and tested according to the stability inspection items.

For `CC(C)C(=O)OC[C@H]1O[C@@](C#N)(c2ccc3c(N)ncnn23)[C@H](OC(=O)C(C)C)[C@@H]1OC(=O)C(C)C` [Compound W, (2R,3R,4R,5R)-2-(4-aminopyrrolo[2,1-f][1,2,4]triazin-7-yl)-2-cyano-5-(isobutyryloxymethyl)tetrahydrofuran-3,4-diyl bis(2-methylpropanoate)], the water solubility (physchem) is given as “poor water solubility”, the anti-SARS-CoV-2 activity (SARS-CoV-2) is given as “significant” and the “inhibitory effect on a variety of other RNA viruses” value [1] is given as “good inhibitory effect”.

With `Br.CC(C)C(=O)OC[C@H]1O[C@@](C#N)(c2ccc3c(N)ncnn23)[C@H](OC(=O)C(C)C)[C@@H]1OC(=O)C(C)C` [Hydrobromide of Compound W, (2R,3R,4R,5R)-2-(4-aminopyrrolo[2,1-f][1,2,4]triazin-7-yl)-2-cyano-5-(isobutyryloxymethyl)tetrahydrofuran-3,4-diyl bis(2-methylpropanoate) hydrobromide] the Hygroscopicity (Hygroscopicity test) was “no hygroscopicity”, the “increase in moisture content” value (Hygroscopicity test) was “RH80%, with an increase in moisture content of <0.1%,” and the Stability ([2]; 7 days) was “Good stability under high temperature (80° C.), high”.

With `Cl.[2H]c1cc([C@]2(C#N)O[C@H](COC(=O)C(C)C)[C@@H](OC(=O)C(C)C)[C@H]2OC(=O)C(C)C)n2ncnc(N)c12` [Hydrochloride of Compound Z, (2R,3R,4R,5R)-2-(4-aminopyrrolo[2,1-f][1,2,4]triazin-7-yl-5-d)-2-cyano-5-(isobutyryloxymethyl)tetrahydrofuran-3,4-diyl bis(2-methylpropanoate) hydrochloride] the “increase in moisture content” value (Hygroscopicity test) was “moisture content of <0.1%” and the Hygroscopicity (Hygroscopicity test; listed as hydrochloride of Compound Z, hydrochloride) was “no hygroscopicity”.

For `[2H]c1cc([C@]2(C#N)O[C@H](COC(=O)C(C)C)[C@@H](OC(=O)C(C)C)[C@H]2OC(=O)C(C)C)n2ncnc(N)c12` [Compound Z, (2R,3R,4R,5R)-2-(4-aminopyrrolo[2,1-f][1,2,4]triazin-7-yl-5-d)-2-cyano-5-(isobutyryloxymethyl)tetrahydrofuran-3,4-diyl bis(2-methylpropanoate)], the water solubility (physchem) is given as “poor water solubility”, the Solubility in water (physchem) is given as 29 µg/mL (≈ 57.7 µM) and the anti-SARS-CoV-2 activity (SARS-CoV-2) is given as “significant”. For the same molecule, the “inhibitory effect on a variety of other RNA viruses” value [1] was “good inhibitory effect”.

For `[2H]c1cc([C@]2(C#N)O[C@H](COC(=O)C(C)C)[C@@H](OC(=O)C(C)C)[C@H]2OC(=O)C(C)C)n2ncnc(N)c12` [Nitrate of Compound Z, (2R,3R,4R,5R)-2-(4-aminopyrrolo[2,1-f][1,2,4]triazin-7-yl-5-d)-2-cyano-5-(isobutyryloxymethyl)tetrahydrofuran-3,4-diyl bis(2-methylpropanoate) nitrate], the Hygroscopicity (Hygroscopicity test; listed as nitrate of Compound Z, nitrate) was “no hygroscopicity”, the “increase in moisture content” value (Hygroscopicity test; nitrate) was “moisture content of <0.1%” and the Stability ([2]; 7 days) was “(80° C.), the solid melted, decomposed,”.

For `O=C(O)/C=C\C(=O)O.[2H]c1cc([C@]2(C#N)O[C@H](COC(=O)C(C)C)[C@@H](OC(=O)C(C)C)[C@H]2OC(=O)C(C)C)n2ncnc(N)c12` [Maleate of Compound Z, (2R,3R,4R,5R)-2-(4-aminopyrrolo[2,1-f][1,2,4]triazin-7-yl-5-d)-2-cyano-5-(isobutyryloxymethyl)tetrahydrofuran-3,4-diyl bis(2-methylpropanoate) maleate], the “increase in moisture content” value (Hygroscopicity test) was “moisture content of <0.1%”, the Hygroscopicity (Hygroscopicity test; listed as maleate of Compound Z, maleate) was “no hygroscopicity” and the solubility at 30 min (physchem; 37 °C, water, thermodynamic from solid, Solubility in water) was 351 µg/mL.

For `[2H]c1cc([C@]2(C#N)O[C@H](COC(=O)C(C)C)[C@@H](OC(=O)C(C)C)[C@H]2OC(=O)C(C)C)n2ncnc(N)c12` [Mesylate of Compound Z, (2R,3R,4R,5R)-2-(4-aminopyrrolo[2,1-f][1,2,4]triazin-7-yl-5-d)-2-cyano-5-(isobutyryloxymethyl)tetrahydrofuran-3,4-diyl bis(2-methylpropanoate) mesylate], the “increase in moisture content” value (Hygroscopicity test) was “moisture content of <0.2%”, the Hygroscopicity (Hygroscopicity test; listed as mesylate of Compound Z, mesylate) was “no hygroscopicity” and the Stability [2] was “decomposed obviously and had a peculiar smell”. For the same molecule, the Solubility in water (physchem) was 464 µg/mL.
